According to ChEMBL document CHEMBL5303304, “EUbOPEN Chemogenomics Library - IncuCyte” (2023):
Where “and” joins values, the source holds several entries; their conditions need not be identical. Equal values may be shown once.

Columns and labels:
Format in all cases: toxicity, cell-based
HEK-293T = assay: Incucyte cell viability with HEK293T; settings: human, 10 µM, compound concentration 10 uM
Fibroblast = assay: Incucyte cell viability with human fibroblast; settings: 10 µM, compound concentration 10 uM
U2OS = assay: Incucyte cell viability with U2OS; settings: human, 10 µM, compound concentration 10 uM
Further: unitless GR value; below 1 slowed growth and below 0 cell loss.

Row | Structure (SMILES) | Growth Rate (HEK-293T; 0 h, replicate number 2) | Growth Rate (HEK-293T; 6 h, replicate number 1) | Growth Rate (HEK-293T; 6 h, replicate number 2) | Growth Rate (HEK-293T; 12 h, replicate number 2) | Growth Rate (HEK-293T; 18 h, replicate number 1) | Growth Rate (HEK-293T; 18 h, replicate number 2) | Growth Rate (HEK-293T; 24 h, replicate number 2) | Growth Rate (Fibroblast; 0 h, replicate number 1) | Growth Rate (Fibroblast; 6 h, replicate number 1) | Growth Rate (Fibroblast; 12 h, replicate number 1) | Growth Rate (Fibroblast; 12 h, replicate number 2) | Growth Rate (Fibroblast; 18 h, replicate number 2) | Growth Rate (Fibroblast; 24 h, replicate number 2) | Growth Rate (U2OS; 6 h, replicate number 1) | Growth Rate (U2OS; 12 h, replicate number 1) | Growth Rate (U2OS; 18 h, replicate number 1) | Growth Rate (U2OS; 24 h, replicate number 1) | Growth Rate (U2OS; 0 h, replicate number 1) | Growth Rate (U2OS; 12 h, replicate number 2) | Growth Rate (U2OS; 24 h, replicate number 2) | other results
1 | CC[C@@H](Nc1c(C#N)c(-c2ccc(-c3cccc(C)c3F)cc2)nc2cnccc12)C(=O)O [BAY-091] | 0.76 | 0.68 | 0.63 | 0.85 | 0.86 | 0.85 | 0.88 | -0.38 | 0.59 | 0.86 | 0.58 | 0.73 | 0.84 | 0.82 | 0.7 | 0.68 | 0.81 |  |  |  | Growth Rate (HEK-293T; 12 h, replicate number 1): 0.65; Growth Rate (HEK-293T; 24 h, replicate number 1): 0.78; Growth Rate (Fibroblast; 0 h, replicate number 2): -0.33; Growth Rate (Fibroblast; 6 h, replicate number 2): 0.39; Growth Rate (Fibroblast; 18 h, replicate number 1): 0.96; Growth Rate (Fibroblast; 24 h, replicate number 1): 0.88
2 | CC[C@H](Nc1c(C#N)c(-c2ccc(-c3cccc(C)c3F)cc2)nc2cnccc12)C(=O)O [BAY-0361] | 0.79 | 0.67 | 0.74 | 0.98 | 0.91 | 0.94 | 0.98 |  | 0.67 | 0.65 | 0.93 |  | 0.84 | 0.1 | 0.56 | 0.74 | 0.91 |  |  |  | Growth Rate (HEK-293T; 12 h, replicate number 1): 0.79; Growth Rate (HEK-293T; 24 h, replicate number 1): 0.92; Growth Rate (Fibroblast; 6 h, replicate number 2): 0.85; Growth Rate (Fibroblast; 18 h, replicate number 1): 0.75; Growth Rate (Fibroblast; 24 h, replicate number 1): 0.8
3 | O[C@]1(C(F)(F)F)CCCC[C@H]1Nc1ccc(F)cc1 [BAY-390] | -0.23 |  | 0.5 | 0.95 |  |  |  |  | 0.19 | 0.69 |  |  |  | 0.4 | 0.57 | 0.69 | 0.74 | -0.18 | 0.8 | 0.93 | Growth Rate (HEK-293T; 0 h, replicate number 1): -0.2; Growth Rate (Fibroblast; 0 h, replicate number 2): 0.2; Growth Rate (Fibroblast; 18 h, replicate number 1): 0.78; Growth Rate (Fibroblast; 24 h, replicate number 1): 0.89; Growth Rate (U2OS; 0 h, replicate number 2): 0.62; Growth Rate (U2OS; 6 h, replicate number 2): 0.7
4 | Cc1c(N2CCNCC2)nc2ccc(Br)cc2c1C(=O)NC[C@H](CCC(=O)O)c1ccccc1Cl [BAY-403] | -0.32 | 0.58 | 0.8 | 0.81 | 0.76 | 0.9 |  | 0.47 |  |  | 0.12 | 0.51 | 0.7 | 0.58 | 0.84 | 0.91 | 0.95 | -0.04 |  |  | Growth Rate (HEK-293T; 24 h, replicate number 1): 0.88; Growth Rate (Fibroblast; 0 h, replicate number 2): 0.9; Growth Rate (Fibroblast; 6 h, replicate number 2): 0.04; Growth Rate (U2OS; 6 h, replicate number 2): 0.52
5 | C[C@H](c1ccnc(Nc2nc3ccc(-c4cc(N(C)C)ncn4)cc3[nH]2)c1)N1CCN(C(=O)CC(F)(F)F)CC1 [BAY-985] | 0.27 | 0.4 | 0.84 | 0.95 |  | 0.94 | 0.92 |  | 0.99 | -1 |  |  |  |  |  |  |  | -0.23 | 0.94 |  | Growth Rate (HEK-293T; 0 h, replicate number 1): 0.79; Growth Rate (Fibroblast; 0 h, replicate number 2): -1; Growth Rate (Fibroblast; 6 h, replicate number 2): -0.72; Growth Rate (Fibroblast; 24 h, replicate number 1): 0.04
6 | CCc1ccccc1C(=O)Nc1n[nH]c2c(C)c(F)c(C3C(C#N)=C(C)N(C)C(C)=C3C#N)cc12 [BAY-3827] | -0.99 |  | 0.11 | 0.34 | 0.99 | 0.66 | 0.71 | 0.47 |  |  |  |  |  |  | 0.96 | 0.9 | 0.9 |  | 0.66 | 0.57 | Growth Rate (HEK-293T; 0 h, replicate number 1): 0.25; Growth Rate (Fibroblast; 0 h, replicate number 2): -0.1; Growth Rate (U2OS; 6 h, replicate number 2): 0.51; Growth Rate (U2OS; 18 h, replicate number 2): 0.62
7 | Cc1c(N2CCCC2)nc2ccc(Br)cc2c1C(=O)NC[C@H](CCC(=O)O)c1ccccc1Cl [BAY-6672] |  |  |  | 0.76 |  | 0.38 | 0.44 |  | 0.13 | 0.91 |  | 0.93 | 0.89 | 0.7 | 0.88 | 0.67 | 0.98 | 0.89 | 0.83 | 0.79 | Growth Rate (HEK-293T; 0 h, replicate number 1): -0.43; Growth Rate (Fibroblast; 18 h, replicate number 1): 0.97; Growth Rate (U2OS; 0 h, replicate number 2): 0.47; Growth Rate (U2OS; 6 h, replicate number 2): 0.83; Growth Rate (U2OS; 18 h, replicate number 2): 0.9
8 | COc1cc(N[C@@H]2CCCC[C@]2(O)C(F)(F)F)ccc1F [BAY-9897] | 0.5 |  | 0.88 | 0.88 |  |  |  |  |  | 0.82 |  |  |  | 0.53 | 0.68 | 0.78 | 0.88 | -0.16 |  | 0.77 | Growth Rate (HEK-293T; 0 h, replicate number 1): 0.51; Growth Rate (U2OS; 18 h, replicate number 2): 0.96
9 | Cl.N/C(=N\C(=O)c1nc(Cl)c(N)nc1N)NCc1ccccc1 [BENZAMIL HYDROCHLORIDE] |  | 0.83 | 0.79 | 1 |  |  |  | 0.69 | -0.25 |  | 0.56 | 0.68 | 0.74 |  |  | 1 |  | 0.13 | 0.99 | 0.94 | Growth Rate (Fibroblast; 6 h, replicate number 2): -0.19
10 | Cc1nnc2n1-c1sc3c(c1C(c1ccccc1Cl)=NC2)CC(C(=O)N1CCOCC1)C3 (centres undefined) [BEPAFANT] | 0 |  |  |  |  | 0.99 |  |  | 0.34 |  | 0.71 | 0.79 | 0.92 | 0.52 | 0.9 |  | 0.89 |  |  |  | Growth Rate (HEK-293T; 0 h, replicate number 1): 0.58; Growth Rate (Fibroblast; 0 h, replicate number 2): -0.12; Growth Rate (Fibroblast; 18 h, replicate number 1): 0.77; Growth Rate (Fibroblast; 24 h, replicate number 1): 0.87; Growth Rate (U2OS; 6 h, replicate number 2): 0.91
11 | CNCc1ccc(-c2cc(-c3nc(-c4ccc(S(=O)(=O)C(C)C)cc4)cnc3N)on2)cc1 [BERZOSERTIB] | -0.99 | -0.67 | -0.05 | -0.51 | -0.3 | -0.38 | -0.26 | -1 |  |  | 0.24 | -0.14 | -0.29 |  | -0.83 | 0.15 | 0.31 | -1 | 0.45 | 0.19 | Growth Rate (HEK-293T; 12 h, replicate number 1): -0.49; Growth Rate (HEK-293T; 24 h, replicate number 1): -0.24; Growth Rate (Fibroblast; 18 h, replicate number 1): 0.32; Growth Rate (Fibroblast; 24 h, replicate number 1): -0.05; Growth Rate (U2OS; 18 h, replicate number 2): 0.23
12 | COC(=O)c1cc2c(cn1)[nH]c1ccccc12 [BETA-CCM] |  | 0.67 |  | 0.64 |  | 0.78 | 0.86 | 0.3 | 0.4 | -1 | 0.65 | 0.98 | 0.9 |  | 0.72 | 0.85 | 0.98 |  | 0.95 | 0.97 | Growth Rate (Fibroblast; 6 h, replicate number 2): -0.82; Growth Rate (U2OS; 0 h, replicate number 2): -0.72; Growth Rate (U2OS; 6 h, replicate number 2): 0.6; Growth Rate (U2OS; 18 h, replicate number 2): 1
13 | CC(=O)N1CCC(c2ccc(C(=O)NC3=NCCN3)cc2C(F)(F)F)CC1 [BI 0054] | -0.32 | 0.29 |  |  | 0.87 |  |  | -1 |  |  | 0.87 | 0.82 | 0.88 | 0.82 | 0.97 |  |  | 0.95 |  |  | Growth Rate (HEK-293T; 12 h, replicate number 1): 0.6; Growth Rate (HEK-293T; 24 h, replicate number 1): 0.81; Growth Rate (U2OS; 18 h, replicate number 2): 0.92
14 | COc1ccc2c(O[C@@H]3C[C@H]4C(=O)N[C@]5(C(=O)O)CC5/C=C\CCCCC[C@H](NC(=O)OC5CCCC5)C(=O)N4C3)cc(-c3csc(NC(=O)C(C)C)n3)nc2c1C (some centres undefined) [BI 1230] |  | 0.86 and 0.76 |  |  | 0.86 and 0.65 |  | 0.34 and 0.67 |  |  | 0.15 and 0.2 | -0.04 and -0.05 |  |  | 0.71 and 0.63 |  | 0.65 and 0.86 | 0.77 and 0.99 | 0.55 | 0.86 | 0.95 | Growth Rate (HEK-293T; 12 h, replicate number 1): 0.92 and 0.77; Growth Rate (HEK-293T; 24 h, replicate number 1): 0.7; Growth Rate (Fibroblast; 0 h, replicate number 2): 0.45; Growth Rate (Fibroblast; 24 h, replicate number 1): 0.07 and 0.17; Growth Rate (U2OS; 6 h, replicate number 2): 0.86; Growth Rate (U2OS; 18 h, replicate number 2): 0.98
